Measured values as given in ChEMBL document CHEMBL1154410, “In vivo efficacy of a novel oxazolidinone compound in two mouse models of infection” (Antimicrob Agents Chemother, 2007).
Converted amounts (≈) assume the structure as drawn. The source made the active and inactive calls. The calls are words filed in the database; no cut-off is given here.

What was measured:
[1] = tested on: Staphylococcus aureus; assay: Antibacterial activity against methicillin-susceptible Staphylococcus aureus Smith infected in C3H mouse assessed as eradication at 25 mg/kg/day, po administered within 15 mins of infection assessed per gram of kidney measured after 48 hrs by organ burden assay relative to control; type: functional
[2] = tested on: Staphylococcus aureus; assay: Antibacterial activity against methicillin-susceptible Staphylococcus aureus Smith infected in C3H mouse assessed as eradication at 12.5 mg/kg/day, po administered within 15 mins of infection assessed per gram of kidney measured after 48 hrs by organ burden assay relative to control; type: functional
[3] = tested on: Staphylococcus aureus; assay: Antibacterial activity against methicillin-susceptible Staphylococcus aureus Smith infected in C3H mouse assessed as eradication at 6.25 mg/kg/day, po administered within 15 mins of infection assessed per gram of kidney measured after 48 hrs by organ burden assay relative to control; type: functional
[4] = tested on: Staphylococcus aureus; assay: Antibacterial activity against methicillin-susceptible Staphylococcus aureus Smith infected in C3H mouse assessed as eradication at 3.12 mg/kg/day, po administered within 15 mins of infection assessed per gram of kidney measured after 48 hrs by organ burden assay relative to control; type: functional
[5] = tested on: Staphylococcus aureus; assay: Antibacterial activity against methicillin-susceptible Staphylococcus aureus Smith infected in C3H mouse assessed as reduction in log number of CFU at 25 mg/kg/day, po administered within 15 mins of infection measured after 48 hrs by organ burden assay relative to control; type: functional
[6] = tested on: Staphylococcus aureus; assay: Antibacterial activity against methicillin-susceptible Staphylococcus aureus Smith infected in C3H mouse assessed as reduction in log number of CFU at 12.5 mg/kg/day, po administered within 15 mins of infection measured after 48 hrs by organ burden assay relative to control; type: functional
[7] = tested on: Staphylococcus aureus; assay: Antibacterial activity against methicillin-susceptible Staphylococcus aureus Smith infected in C3H mouse assessed as reduction in log number of CFU at 6.25 mg/kg/day, po administered within 15 mins of infection measured after 48 hrs by organ burden assay relative to control; type: functional
[8] = tested on: Staphylococcus aureus; assay: Antibacterial activity against methicillin-susceptible Staphylococcus aureus Smith infected in C3H mouse assessed as reduction in log number of CFU at 3.12 mg/kg/day, po administered within 15 mins of infection measured after 48 hrs by organ burden assay relative to control; type: functional
[9] = tested on: Staphylococcus aureus; assay: Antibacterial activity against methicillin-susceptible Staphylococcus aureus Smith infected in C3H mouse assessed as eradication at 25 mg/kg/day, iv administered within 15 mins of infection assessed per gram of kidney measured after 48 hrs by organ burden assay relative to control; type: functional
[10] = tested on: Staphylococcus aureus; assay: Antibacterial activity against methicillin-susceptible Staphylococcus aureus Smith infected in C3H mouse assessed as eradication at 12.5 mg/kg/day, iv administered within 15 mins of infection assessed per gram of kidney measured after 48 hrs by organ burden assay relative to control; type: functional
[11] = tested on: Staphylococcus aureus; assay: Antibacterial activity against methicillin-susceptible Staphylococcus aureus Smith infected in C3H mouse assessed as eradication at 6.25 mg/kg/day, iv administered within 15 mins of infection assessed per gram of kidney measured after 48 hrs by organ burden assay relative to control; type: functional
[12] = tested on: Staphylococcus aureus; assay: Antibacterial activity against methicillin-susceptible Staphylococcus aureus Smith infected in C3H mouse assessed as eradication at 3.12 mg/kg/day, iv administered within 15 mins of infection assessed per gram of kidney measured after 48 hrs by organ burden assay relative to control; type: functional
[13] = tested on: Staphylococcus aureus; assay: Antibacterial activity against methicillin-susceptible Staphylococcus aureus Smith infected in C3H mouse assessed as reduction in log number of CFU at 25 mg/kg/day, iv administered within 15 mins of infection measured after 48 hrs by organ burden assay relative to control; type: functional
[14] = tested on: Staphylococcus aureus; assay: Antibacterial activity against methicillin-susceptible Staphylococcus aureus Smith infected in C3H mouse assessed as reduction in log number of CFU at 12.5 mg/kg/day, iv administered within 15 mins of infection measured after 48 hrs by organ burden assay relative to control; type: functional
[15] = tested on: Staphylococcus aureus; assay: Antibacterial activity against methicillin-susceptible Staphylococcus aureus Smith infected in C3H mouse assessed as reduction in log number of CFU at 6.25 mg/kg/day, iv administered within 15 mins of infection measured after 48 hrs by organ burden assay relative to control; type: functional
[16] = tested on: Staphylococcus aureus; assay: Antibacterial activity against methicillin-susceptible Staphylococcus aureus Smith infected in C3H mouse assessed as reduction in log number of CFU at 3.12 mg/kg/day, iv administered within 15 mins of infection measured after 48 hrs by organ burden assay relative to control; type: functional
[17] = tested on: Staphylococcus aureus; assay: Antibacterial activity against methicillin-susceptible Staphylococcus aureus Smith infected in po dosed C3H mouse localized infection model assessed as reduction of number of CFU per gram of kidney administered 15 mins after infection measured after 48 hrs relative to control; type: functional
[18] = tested on: Staphylococcus aureus; assay: Antibacterial activity against methicillin-susceptible Staphylococcus aureus Smith infected in iv dosed C3H mouse localized infection model assessed as reduction of number of CFU per gram of kidney administered 15 mins after infection measured after 48 hrs relative to control; type: functional
[19] = tested on: Staphylococcus aureus; assay: Antibacterial activity against 3.6 x 10^8 CFU methicillin-resistant Staphylococcus aureus COL by dilution susceptibility test; type: functional
[20] = tested on: Staphylococcus aureus; assay: Antibacterial activity against methicillin-resistant Staphylococcus aureus COL infected in po dosed DBA/2 mouse localized infection model assessed as reduction of number of CFU per gram of thigh administered 2 hrs postinfection thrice daily for 1 day and once daily for 5 days measured after 48 hrs relative to control; type: functional
[21] = tested on: Staphylococcus aureus; assay: Antibacterial activity against methicillin-resistant Staphylococcus aureus COL infected in iv dosed DBA/2 mouse localized infection model assessed as reduction of number of CFU per gram of thigh administered 2 hrs postinfection thrice daily for 1 day and once daily for 1 day measured after 48 hrs relative to control; type: functional
[22] = tested on: Staphylococcus aureus; assay: Antibacterial activity against linezolid-resistant methicillin-resistant Staphylococcus aureus infected in po dosed C3H mouse localized infection model assessed as reduction of number of CFU per gram of thigh administered 2 hrs postinfection thrice daily for 1 day and once daily for 5 days measured after 48 hrs relative to control; type: functional; details: Thigh muscle
[23] = tested on: Staphylococcus aureus; assay: Antibacterial activity against methicillin-resistant Staphylococcus aureus COL infected in po dosed DBA/2 mouse localized infection model assessed as log reduction in CFU per gram of thigh at 10 mg/kg, po administered 2 hrs postinfection thrice daily for 1 day and once daily for 5 days measured after 48 hrs by organ burden assay relative to control; type: functional
[24] = tested on: Staphylococcus aureus; assay: Antibacterial activity against methicillin-resistant Staphylococcus aureus COL infected in po dosed DBA/2 mouse localized infection model assessed as log reduction in CFU per gram of thigh at 5 mg/kg, po administered 2 hrs postinfection thrice daily for 1 day and once daily for 5 days measured after 48 hrs by organ burden assay relative to control; type: functional
[25] = tested on: Staphylococcus aureus; assay: Antibacterial activity against methicillin-resistant Staphylococcus aureus COL infected in po dosed DBA/2 mouse localized infection model assessed as log reduction in CFU per gram of thigh at 10 mg/kg, iv administered 2 hrs postinfection thrice daily for 1 day and once daily for 1 day measured after 48 hrs by organ burden assay relative to control; type: functional
[26] = tested on: Staphylococcus aureus; assay: Antibacterial activity against methicillin-resistant Staphylococcus aureus COL infected in po dosed DBA/2 mouse localized infection model assessed as log reduction in CFU per gram of thigh at 5 mg/kg, iv administered 2 hrs postinfection thrice daily for 1 day and once daily for 1 day measured after 48 hrs by organ burden assay relative to control; type: functional
[27] = Fraction unbound in Staphylococcus aureus-infected mouse localized thigh infection model plasma at 25 mg/kg; type: ADME, organism-based; set-up: dose 25 mg/kg; details: read-out: PPB
[28] = Bioavailability in Staphylococcus aureus-infected mouse localized thigh infection model at 25 mg/kg; type: ADME, organism-based; details: in vivo
[29] = tested on: Staphylococcus aureus; assay: Antibacterial activity against 10^9 CFU linezolid-resistant methicillin-resistant Staphylococcus aureus by dilution susceptibility test; type: functional
[30] = tested on: Staphylococcus aureus; assay: Antibacterial activity against methicillin-resistant Staphylococcus aureus; type: functional, organism-based
[31] = tested on: Enterococcus; assay: Antibacterial activity against vancomycin-resistant Enterococcus spp.; type: functional, organism-based
[32] = tested on: Streptococcus pneumoniae; assay: Antibacterial activity against penicillin-resistant Streptococcus pneumoniae; type: functional, organism-based
[33] = tested on: Haemophilus influenzae; assay: Antibacterial activity against Haemophilus influenzae by dilution susceptibility test; type: functional
[34] = tested on: Moraxella catarrhalis; assay: Antibacterial activity against Moraxella catarrhalis by dilution susceptibility test; type: functional
[35] = tested on: Staphylococcus aureus; assay: Antibacterial activity against methicillin-susceptible Staphylococcus aureus Smith by dilution susceptibility test; type: functional
[36] = tested on: Staphylococcus aureus; assay: Antibacterial activity against methicillin-susceptible Staphylococcus aureus Smith infected in C3H mouse assessed as renal sterilization at 25 mg/kg/day, po administered 15 mins postinfection; type: functional, organism-based
[37] = tested on: Staphylococcus aureus; assay: Antibacterial activity against linezolid-resistant methicillin-resistant Staphylococcus aureus infected in C3H mouse localized infection model assessed as log reduction in CFU per gram of thigh at 100 mg/kg measured after 48 hrs by organ burden assay relative to control; type: functional

Molecule N#C[C@]1(c2ccc(-c3ccc(N4C[C@H](Cn5ccnn5)OC4=O)cc3F)cn2)[C@@H]2CNC[C@@H]21 has an Activity [1] of 0%, an Activity [2] of 0% and an Activity [3] of 0%. It also gave an Activity [4] of 0%, an Activity [5] of 5.23 and an Activity [6] of 2.93. For the same molecule, the Activity [7] was 2.63, the Activity [8] was -0.26 and the Activity [9] was 0%. It also gave an Activity [10] of 0%, an Activity [11] of 0% and an Activity [12] of 0%. For the same molecule, the Activity [13] was 4.59, the Activity [14] was 4.46 and the Activity [15] was 2.03. It also gave an Activity [16] of 0.06, an ED99 [17] of 4.9 mg/kg and an ED99 [18] of 6.3 mg/kg. For the same molecule, the MIC [19] was 0.125 mg/L (≈ 0.281 µM), the ED99 [20] was 4.2 mg/kg and the ED99 [21] was 5.6 mg/kg. It also gave an ED99 [22] of 10.2 mg/kg, a log10cfu [23] of 3.7 and a log10cfu [24] of 2. It also gave a log10cfu [25] of 1.5, a log10cfu [26] of 2.4 and a fraction unbound [27] of 0.19. For the same molecule, the bioavailability [28] was 30%, the MIC [29] was 1 mg/L (≈ 2.24 µM) and the Activity [30] was “Active”. For the same molecule, the Activity [31] was “Active”, the Activity [32] was “Active” and the MIC90 [33] was 2 mg/L (≈ 4.49 µM). It also gave an MIC90 [34] of 0.5 mg/L (≈ 1.12 µM) and an MIC [35] of 0.125 mg/L (≈ 0.281 µM).
CC(=O)NC[C@H]1CN(c2ccc(N3CCOCC3)c(F)c2)C(=O)O1 [LINEZOLID] showed an Activity [1] of 100%, an Activity [2] of 0% and an Activity [3] of 0%. For the same molecule, the Activity [4] was 0%, the Activity [5] was 6.07 and the Activity [6] was 2.71. It also gave an Activity [7] of 1.44, an Activity [8] of -0.53 and an Activity [9] of 0%. It also gave an Activity [10] of 0%, an Activity [11] of 0% and an Activity [12] of 0%. The Activity [13] was 4.27, the Activity [14] was 1.44 and the Activity [15] was -0.12. For the same molecule, the Activity [16] was -0.27, the ED99 [17] was 7 mg/kg and the ED99 [18] was 12 mg/kg. The MIC [19] was 1 mg/L (≈ 2.96 µM), the Activity [36] was “Active” and the ED99 [20] was 5.2 mg/kg. For the same molecule, the ED99 [21] was 6.9 mg/kg, the ED99 [22] was 85 mg/kg and the log10cfu [23] was 3.7. For the same molecule, the log10cfu [24] was 2, the log10cfu [25] was 1.5 and the log10cfu [26] was 2.4. It also gave a fraction unbound [27] of 0.68, an MIC [29] of 64 mg/L (≈ 190 µM) and a log10cfu [37] of 2.5.
